For one assay, the target named is T1, heparanase (Homo sapiens, UniProt Q9Y251).
T1 sequence (Q9Y251 158-543 limits assumed): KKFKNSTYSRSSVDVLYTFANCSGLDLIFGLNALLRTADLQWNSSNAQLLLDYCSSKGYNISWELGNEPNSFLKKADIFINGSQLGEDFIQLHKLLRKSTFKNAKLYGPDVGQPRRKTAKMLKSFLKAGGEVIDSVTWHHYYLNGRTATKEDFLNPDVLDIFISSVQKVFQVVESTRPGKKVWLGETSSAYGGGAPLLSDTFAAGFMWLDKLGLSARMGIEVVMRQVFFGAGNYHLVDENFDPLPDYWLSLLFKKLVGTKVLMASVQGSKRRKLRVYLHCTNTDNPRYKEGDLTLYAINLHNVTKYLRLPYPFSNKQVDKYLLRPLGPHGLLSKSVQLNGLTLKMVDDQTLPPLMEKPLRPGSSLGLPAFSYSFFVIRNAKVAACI
T1 sequence (Q9Y251 36-109 limits assumed): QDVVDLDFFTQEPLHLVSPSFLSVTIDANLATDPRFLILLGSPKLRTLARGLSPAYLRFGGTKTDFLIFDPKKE
Nature of the assay: AGA*IA assay (fondaparinux cleavage, WST-1 colorimetric) for heparanase inhibition. Type of assay: biochemical. On the procedure: All compounds were tested in a simple, accurate and robust microplate assay based on the cleavage of the synthetic heparin fragment, the pentasaccharide Fondaparinux (AGA*IA). This assay was originally developed by Hammond and coworkers [Hammond E, Li CP, Ferro V. Development of a colorimetric assay for heparanase activity suitable for kinetic analysis and inhibitor screening. […] Fondaparinux is cleaved by heparanase to generate a reducing disaccharide, which can be quantitatively measured via a colorimetric or a fluorescence assay, the last by the fluorescent sensor polymer-H [Schiemann S, Lühn S, Alban S. Development of both colorimetric and fluorescence heparinase activity assays using fondaparinux as substrate.
The assay measures the appearance of the disaccharide product of heparanase-catalyzed fondaparinux cleavage colorimetrically using the tetrazolium salt WST-1. Assay was essentially performed as described with minor modifications. Briefly, NUNC ELISA 96-well plates were pre-treated with a solution of 4% BSA (bovin serum albumin) in phosphate-buffered saline containing 0.05% Tween 20 (PBST), for 2 h at 37°C, then washed three times with PBST, dried by tapping on paper towel and stored at -20°C. Before use, once again, the plates were washed with PBST.
Then, the absorbance at 560 nm was measured through a microplate reader (Victor 3, Perkin Elmer).
Finally, the measurements were corrected by subtracting both the reagent background and the inner absorbance value of test compound. Table 2. IC50 value in AGA*IA assay, versus heparanase inhibition of selected compounds of present invention.
For orientation: Tetrazolium dyes change colour on reduction, which living cells bring about.

The subject of assay [1] is U87MG (human glioblastoma astrocytoma). Nature of the assay: Matrigel cell invasion assay. Type of assay: cell-based. On the procedure:
(§1) Heparanase inhibitors were then evaluated for their activity on the invasive potential of HT1080 (human fibrosarcoma), U87MG (human glioblastoma astrocytoma) and U2OS (human osteosarcoma) human cell lines, using the Matrigel cell invasion assay which allows to assess the cell invasion ability of malignant and normal cells.
(§2) Invasion assay was performed using BioCoat cell culture inserts (BioCoat 8.0µm PET Membrane 24 Well Permeable Supports, Corning). Filters were coated with 100 µl of 300 µg/ml Matrigel dissolved in coating buffer (0.01M Tris pH 8.0, 0.7% NaCl) (Becton-Dickinson Sciences). DMEM (Dulbecco's Modified Eagle's Medium) containing 5% FBS was added to the lower chambers. Cells were pre-treated with heparanase inhibitors for 24 h, detached and added to the upper chambers in media containing the inhibitors. Cells were allowed to invade for 24 h at 37°C in a CO2 incubator and then unmigrated cells were removed from the upper chamber with a cotton swab. The invading cells were fixed, stained with 0.1% crystal violet for 10 min at room temperature, photographed and counted under inverted microscope.
(§3) Test compounds were analyzed at fixed concentration for several fields, in duplicates. Activity of test compounds was compared to the reference compound. Activity of most interesting compound was confirmed in a second cell invasion assay. Data were expressed as the percent invasion with respect to cell migration through uncoated insert membrane.

The subject of assay [2] is U2OS (human osteosarcoma). Nature of the assay: Matrigel cell invasion assay. Type of assay: cell-based. Here is the method:
as §1, §2, §3

The test system of assay [3] is HT1080 (human fibrosarcoma). In words: Matrigel cell invasion assay. Type of assay: cell-based. Here is the method:
as §1, §2, §3

The test system of assay [4] is U2OS (human osteosarcoma). In words: SRB Cell Cytotoxicity Assay, 72h. Type of assay: cell-based. The note with it: Conc. 2.5 µM, N.I.: Not Inhibition.
Method: (§4) SRB Cell Cytotoxicity Assay is an assay based upon the quantitative staining of cellular proteins by sulforhodamine B (SRB). […] Sulforhodamine B is an anionic aminoxanthene dye that forms an electrostatic complex with the basic amino acid residues of proteins under moderately acid conditions, which provides a sensitive linear response.
(§5) Inhibition of cell proliferation was then measured by the classical colorimetric SRB Cell Cytotoxicity assay. Absorbance was measured by spectrophotometer at a wavelength of 510 nm and cell proliferation was determined as percent with respect to control cells (cells treated with the vehicle alone). EC50 values were then determined by GraphPad Prism.
Assay [5] concerns HT1080 (human fibrosarcoma). In words: SRB Cell Cytotoxicity Assay, 72h. Type of assay: cell-based. The note with it: Conc. 2.5 µM, N.I.: Not Inhibition.
Method: as §4, §5
The subject of assay [6] is U87MG (human glioblastoma astrocytoma). In words: SRB Cell Cytotoxicity Assay, 72h. Type of assay: cell-based. The note with it: Conc. 2.5 µM, N.I.: Not Inhibition.
Method: as §4, §5
For another assay, the system named is FGF-2. In words: Real-Time Quantitative PCR of mRNA gene expression in HT1080 cells. The note with it: 24 h, Conc 1.0 uM.
For a further assay, the system named is FGF-1. The assay is described as above. The note with it: 24 h, Conc 1.0 uM.
The next assay has as its system MMP-9. The assay is described as above. The note with it: 24 h, Conc 1.0 uM.
The next assay has as its system VEGF. The assay is described as above. The note with it: 24 h, Conc 1.0 uM.
[7] abbreviates: Table 1, fluorinated vs non-fluorinated analogues.
[8] abbreviates: Table 3, fluorinated vs non-fluorinated derivatives, read-out: AGAIA assay IC50.

These results are taken from patent publication EP3381908A1, “2-(4-(4-(BROMO-METHOXYBENZAMIDO)BENZYLAMINO)PHENYL)BENZAZOLE DERIVATIVES AND THEIR USE AS ANTI-HEPARANASE” (Leadiant Biosciences SA, priority 2017, dated 2018).

Read-outs that look alike come from different tables or passages of the source.

Method for FGF-1: (§6) To evaluate the effect of heparanase inhibitors on the tumor transcription of genes encoding for proangiogenic factors, such as FGF1/2, VEGF, MMP-9, HSPE-1, the relative mRNA levels were analyzed by quantitative Real-Time Quantitative PCR.
(§7) To perform the assay, HT1080 (human fibrosarcoma) cells were cultured in complete medium containing 10%FCS (fetal calf serum). Cells were plated in 24-well plates and treated at fixed concentration (i.e., highest non-toxic concentration) of test compounds. After 24 h, cells were detached, collected and total RNA extracted by RNeasy Mini Kit (QIAGEN). Following reverse transcription step, FGF1/2, VEGF, MMP-9, HSPE-1 mRNA levels, were quantified by qPCR using the advanced Universal SYBR Green Supermix (Bio Rad) and ABI PRISM 7900HT Thermal Cycler System (Perkin Elmer), according to the manufacturer's instructions. […] Relative levels of RNA were calculated using the ddCt method. Standard curve and sample data were run in duplicate.
Method for FGF-2: as §6, §7
Method for MMP-9: as §6, §7
Method for VEGF: as §6, §7

For the compound `COc1ccc(C(=O)Nc2ccc(CNc3ccc(-c4nc5cc(CC(=O)O)ccc5[nH]4)cc3F)cc2)cc1Br` [Compound 10, 2-(2-(4-((4-(3-bromo-4-methoxybenzamido)benzyl)amino)-3-fluorophenyl)-1H-benzo[d]imidazol-5-yl)acetic acid], the IC50 against heparanase (setting [7]) is 2860 nM; against heparanase (Table 2, class symbols), 1000 to 20000 nM; on heparanase (setting [8]) it was 2860 nM.

`COc1ccc(C(=O)Nc2ccc(CNc3ccc(-c4nc5cc(CC(=O)NCC(=O)O)ccc5[nH]4)cc3F)cc2)cc1Br` [Compound 15, 2-(2-(2-(4-((4-(3-bromo-4-methoxybenzamido)benzyl)amino)-3-fluorophenyl)-1H-benzo[d]imidazol-5-yl)acetamido)acetic acid]: in assay [1] (Conc. 2.5µM), the “Invasion Assay U87MG” value is “+ (+ : < 50%)”. In assay [2] (Conc. 2.5µM), the “Invasion Assay U2OS” value was “+ (+ : < 50%)”. Besides, the “Invasion Assay HT1080” value in [3] (Conc. 2.5µM) is “+ (+ : < 50%)”. In assay [4], the “Concentration of test compounds at which the cell growth is inhibited by 50 % U2OS” value is recorded as “N. I”. For the same compound, the “Concentration of test compounds at which the cell growth is inhibited by 50 % HT1080” value in [5] is reported as “N. I”. Besides, the IC50 at heparanase (Table 2, class symbols) was 500 to 990 nM. In addition, the “Concentration of test compounds at which the cell growth is inhibited by 50 % U87MG” value in assay [6] is listed as “N. I”.

Turning to `COc1ccc(C(=O)Nc2ccc(CNc3ccc(-c4nc5ccccc5[nH]4)cc3F)cc2)cc1Br` [Compound 22], the “Invasion Assay U87MG” value in [1] (Conc. 1.1µM) is “++ (++: 50-90%)”. For the same compound, the “Invasion Assay U2OS” value in assay [2] (Conc. 1.1µM) was “++ (++: 50-90%)”. Besides, in assay [3] (Conc. 1.1µM), the “Invasion Assay HT1080” value is “++ (++: 50-90%)”. The “Gene Expression (% mRNA vs. control) FGF-2” value in the assay with FGF-2 is listed as “∼ 71%”. The “Gene Expression (% mRNA vs. control) FGF-1” value in the assay on FGF-1 is “∼ 77%”. Besides, the “Gene Expression (% mRNA vs. control) MMP-9” value in the assay with MMP-9 is recorded as “∼ 52%”. For the same compound, the “Gene Expression (% mRNA vs. control) VEGF” value in the assay on VEGF is on record as “∼ 67%”.

Consider `COc1ccc(C(=O)Nc2ccc(CNc3ccc(-c4nc5ccccc5[nH]4)cc3)cc2)cc1Br` [SST0408AA1, reference compound], for which, in the assay on FGF-2, the “Gene Expression (% mRNA vs. control) FGF-2” value was “∼ 92%”. Further, the “Gene Expression (% mRNA vs. control) FGF-1” value with FGF-1 is on record as “∼ 97%”. Also, in the assay on MMP-9, the “Gene Expression (% mRNA vs. control) MMP-9” value is recorded as “∼ 69%”. Further, in the assay with VEGF, the “Gene Expression (% mRNA vs. control) VEGF” value was “∼ 72%”.

Consider `COc1ccc(C(=O)Nc2ccc(CNc3ccc(-c4nc5cc(CC(=O)O)ccc5[nH]4)cc3)cc2)cc1Br` [SST0914AA1, 2-(2-(4-((4-(3-bromo-4-methoxybenzamido)benzyl)amino)-phenyl)-1H-benzo[d]imidazol-5-yl)acetic acid, reference compound], for which the IC50 against heparanase (setting [7]) and at heparanase (setting [8]) was over 10000 nM each time.

With `COc1ccc(C(=O)Nc2ccc(CNc3ccc(-c4nc5cc(CC(=O)O)ccc5o4)cc3)cc2)cc1Br` [SST0915AA1, 2-(2-(4-((4-(3-bromo-4-methoxybenzamido)benzyl)amino)phenyl)benzo[d]oxazol-5-yl)acetic acid, reference compound], the IC50 at heparanase (setting [7]) and on heparanase (setting [8]) was over 10000 nM in each case.

With `Cc1ccc(C(=O)Nc2ccc(S(=O)(=O)O)c3cc(S(=O)(=O)O)cc(S(=O)(=O)O)c23)cc1NC(=O)c1cccc(NC(=O)Nc2cccc(C(=O)Nc3cc(C(=O)Nc4ccc(S(=O)(=O)O)c5cc(S(=O)(=O)O)cc(S(=O)(=O)O)c45)ccc3C)c2)c1` [Suramin, reference compound], the “Invasion Assay U87MG” value in [1] (Conc. 10µM) is reported as “-”. The “Invasion Assay U2OS” value in [2] (Conc. 10µM) is “-”. In addition, in [3] (Conc. 10µM), the “Invasion Assay HT1080” value is reported as “+ (+ : < 50%)”.

A word on the IC50: it is the concentration at which inhibition is half-maximal.
